The source of these data is patent US20250152387A1, “COBALT-CHROMIUM ALLOY STENT AND DRUG ELUTING STENT” (AmsinoMed Medical Co., Ltd, priority 2022, published 2025).

A short description of series [1]: Drug release from coated stents soaked in PBS solution in a shaker. Type of series: physicochemical. The conditions noted are these: at 1 d; release curve obtained by adjustment. From the text:
The process of testing the release properties of tacrolimus of the present invention comprises: soaking drug stents in a PBS solution, placing the stents in a shaker (shaking speed of 80 r/min), and taking out the stents at the corresponding time points (1 d, 7 d, 14 d, 21 d, and 28 d) (at least 3 stents for each time point), and testing the concentration of tacrolimus. The content of tacrolimus can be tested using the detection method in “Determination of Tacrolimus Tablets by HPLC” (Lv, Yongchao, Song, Yucai; Journal of Pharmaceutical Research 2013 Vol. 32, No. 4, page 1).
For the drug release properties of the present invention, the release process comprises: soaking drug stents in a PBS solution, placing the stents in a shaker (shaking speed of 100 r/min), and taking out 5 ml of the solution at the corresponding time points (1 d, 7 d, 14 d, 21 d, and 28 d) (at least 3 stents for each time point) for testing. The release of the drug arsenic trioxide is detected using the method disclosed in “Preparation and the Release Characteristic in vitro of Arsenic Trioxide Albumin Nanospheres” (Zhou, Jie, Zeng, Fuqing, Gao, Xiang, Xie, Shusheng, Wei, Shuli, Chinese Journal of New Drugs, pages 54-57).

Series [2] relates to IL-6, IL-10 and TNF-α gene expression in HUVECs. As to the kind of experiment: PCR of inflammatory factor gene expression in LPS-induced HUVECs. The series is classed as cell-based. The conditions noted are these: 10 nM; HUVECs induced with LPS 1 μg/ml for 6 h. The method, then:
The range of effective concentrations at which TAC inhibited the inflammatory response of vascular endothelial cells was verified at the cellular level.
After induction of HUVECs with LPS at a concentration of 1 μg/ml for 6 h, the inhibitory effects of TAC at different concentrations on the inflammatory response of HUVECs were detected by PCR.

Series [3] has as its system vascular smooth muscle cells (HASMCs). In words: CCK-8 cell viability assay on vascular smooth muscle cells. The series is classed as cell-based. The conditions noted are these: different concentrations, 24 h and 48 h. The method, then:
The range of drug concentrations at which ATO and TAC were friendly to vascular smooth muscle cell viability was determined at the cellular level.
The changes in the cell viability of vascular smooth muscle cells (HASMCs) under the action of ATO, TAC and rapamycin (RAP) at different concentrations for 24 h and 48 h were studied by CCK-8 cell viability assay, respectively.

In series [4] the test system is vascular endothelial cells (HUVECs). In words: CCK-8 cell viability assay on vascular endothelial cells. Type of series: cell-based. The conditions noted are these: 24 h and 48 h. The method, then:
The range of drug concentrations at which ATO and TAC were friendly to vascular endothelial cell viability was determined at the cellular level.
The changes in the cell viability of vascular endothelial cells (HUVECs) under the action of ATO, TAC and rapamycin (RAP) at different concentrations for 24 h and 48 h were studied by CCK-8 cell viability assay, respectively.

On to `C=CC[C@@H]1/C=C(\C)C[C@H](C)C[C@H](OC)[C@H]2O[C@@](O)(C(=O)C(=O)N3CCCC[C@H]3C(=O)O[C@H](/C(C)=C/[C@@H]3CC[C@@H](O)[C@H](OC)C3)[C@H](C)[C@@H](O)CC1=O)[C@H](C)C[C@@H]2OC` [TAC, tacrolimus], for which the tacrolimus released in series [1] is at least 40%. The “gene expression levels of cellular inflammatory factors IL-6, IL-10 and TNF-α” value in series [2] is reported as “effectively reduce”. In series [3], the “effect on the viability of vascular smooth muscle cells” value is listed as “no significant inhibitory effect”. The “concentration with no significant effect on cell viability” value in series [4] is given as at most 50 nM.
In the case of `CO[C@H]1C[C@@H]2CC[C@@H](C)[C@@](O)(O2)C(=O)C(=O)N2CCCC[C@H]2C(=O)O[C@H]([C@H](C)C[C@@H]2CC[C@@H](O)[C@H](OC)C2)CC(=O)[C@H](C)/C=C(\C)[C@@H](O)[C@@H](OC)C(=O)[C@H](C)C[C@H](C)/C=C/C=C/C=C/1C` [RAP, rapamycin], in series [4], the “concentration with no significant effect on cell viability” value is recorded as at most 100 nM.
